Experimental data from patent publication US4888333A, “Allymercaptoacetylsydnonimines, processes for their preparation, and their use” (Cassella Aktiengessellschaft, priority 1987, dated 1989).
Like-named read-outs stand apart in the source and are kept apart here.

Test system: pulmonary artery of the guinea pig
Experiment: Relaxant effect: inhibition of CaCl2-triggered contraction of potassium-depolarized spiral strips of the pulmonary artery
Assay type: cell-based
Conditions: calcium-free Tyrode's solution, 40 mmol/l potassium, 0.5 mmol/l CaCl2, mean of 4 to 6 vessel strips, read-out: IC50 (concentration of the test substance which inhibits contraction by 50%)
From the text: The pharmacological action of the compounds of the formula I was established using a modification of the method of Godfraind and Kaba (Arch. Int. Pharmacodyn. Ther. 196, (Suppl) 35 to 49, 1972) and of Schumann et al. (Naunyn-Schmiedeberg's Arch. Pharmacol. 289, 409 to 481, 1975). This entails spiral strips of the pulmonary artery of the guinea pig being equilibrated in calcium-free Tyrode's solution and then depolarized with 40 mmol/l of potassium. Addition of 0.5 mmol/l of CaCl2 then triggers a contraction. The relaxant effect of the test substance is established by cumulative addition of concentrations in 1/2 log 10 steps. The concentration of the test substance which inhibits contraction by 50% (=IC50, mol/l) is established from the concentration/effect graph (abscissa: -log mol/l test substance, ordinate: % inhibition of the maximum contraction, mean of 4 to 6 vessel strips).

Row | SMILES | IC50 (Cavia porcellus) [µM] | IC50 [µM]
1 | C=CCSCC(=O)[N-]c1c[n+](N2CCOCC2)no1 [Example 1, 3-Morpholino-N-allylmercaptoacetylsydononimine] | 20 | –
2 | C=CCSCC(=O)[N-]c1c[n+](N2CCN(C(=O)OCC)CC2)no1 [Example 2, 3-(4-Ethoxycarbonyl-1-piperazinyl)-N-allylmercaptoacetylsydnonimine] | 80 | –
3 | C=CCSCC(=O)[N-]c1c[n+](N2CCN(S(C)(=O)=O)CC2)no1 [Example 3, 3-(4-Methylsulphonyl-1-piperazinyl)-N-allylmercaptoacetylsydnonimine] | 30 | –
4 | C=CCSCC(=O)[N-]c1c[n+](N2CCN(S(=O)(=O)N(C)C)CC2)no1 [Example 4, 3-(4-Dimethylaminosulphonyl-1-piperazinyl)-N-allylmercaptoacetylsydnonimine] | 30 | –
5 | C=CCSCC(=O)[N-]c1c[n+](N2CCS(=O)(=O)CC2)no1 [Example 5, 3-(1,1-Dioxotetrahydro-1,4-thiazin-4-yl)-N-allylmercaptoacetylsydnonimine] | 30 | –
6 | C=CCSCC(=O)[N-]c1c[n+](N(C)C2CCS(=O)(=O)C2)no1 (stereo not shown) [Example 6, 3-(N-Methyl-N-1,1-dioxotetrahydro-3-thienylamino)-N-allylmercaptoacetylsydnonimine] | 10 | –
7 | C=CCSCC(=O)[N-]c1c[n+](N(C)C)no1 [Example 7, 3-Dimethylamino-N-allylmercaptoacetylsydnonimine] | 30 | –
8 | C=CCSCC(=O)[N-]c1c[n+](N2CCCCC2)no1 [Example 8, 3-Piperidino-N-allylmercaptoacetylsydnonimine] | 20 | –
9 | CCOC(=O)[N-]c1cn(N2CCOCC2)n[o+]1 [Molsidomine, N-ethoxycarbonyl-3-morpholinosydnonimine, reference compound] | 100 | > 100
